“Also recorded” adds a separate entry of the source.
Tests used:
[1] = target: T1, OxR2 (Homo sapiens, UniProt O43614); settings: cited from earlier work
T1 sequence (O43614 1-444): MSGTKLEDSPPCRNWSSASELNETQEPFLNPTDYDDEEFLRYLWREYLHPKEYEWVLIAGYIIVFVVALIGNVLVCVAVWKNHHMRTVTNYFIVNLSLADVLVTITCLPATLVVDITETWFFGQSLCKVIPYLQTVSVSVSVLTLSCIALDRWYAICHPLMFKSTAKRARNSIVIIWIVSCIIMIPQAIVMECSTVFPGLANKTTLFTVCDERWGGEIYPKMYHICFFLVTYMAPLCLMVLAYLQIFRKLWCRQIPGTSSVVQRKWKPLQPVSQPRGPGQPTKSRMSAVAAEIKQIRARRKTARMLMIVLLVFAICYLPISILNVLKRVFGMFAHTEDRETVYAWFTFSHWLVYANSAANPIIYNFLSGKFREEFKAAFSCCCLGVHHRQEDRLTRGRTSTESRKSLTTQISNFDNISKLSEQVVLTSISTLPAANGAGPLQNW

[2] = target: T1, OxR2; settings: read-out: Human OxR2 FLIPR; cited from earlier work
[3] = target: T2, recombinant human OxR1 (Homo sapiens, UniProt O43613); settings: cited from earlier work
T2 sequence (O43613 1-425): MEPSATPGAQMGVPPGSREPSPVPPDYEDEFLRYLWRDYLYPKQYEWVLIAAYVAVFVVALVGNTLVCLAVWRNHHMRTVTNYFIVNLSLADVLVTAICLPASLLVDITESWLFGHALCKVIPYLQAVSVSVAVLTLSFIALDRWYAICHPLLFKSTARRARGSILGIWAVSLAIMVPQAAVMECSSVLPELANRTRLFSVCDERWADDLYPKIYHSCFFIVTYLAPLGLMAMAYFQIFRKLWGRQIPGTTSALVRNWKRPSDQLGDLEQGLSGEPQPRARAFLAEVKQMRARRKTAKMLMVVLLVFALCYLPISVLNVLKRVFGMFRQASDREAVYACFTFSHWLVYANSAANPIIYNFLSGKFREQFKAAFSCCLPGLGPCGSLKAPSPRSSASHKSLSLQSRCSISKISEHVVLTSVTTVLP

[4] = target: T1, OxR2; settings: cited from earlier work; remark: listed apart in the source
[5] = system: rat ventral tegmental area dopamine neurons; settings: 1 micro molar of Almorexant; cited from earlier work
[6] = target: T3, rat OxR1 (Rattus norvegicus, UniProt P56718); settings: rat OxR1 cell cultures, t=30 min to t=4 hours; cited from earlier work
T3 sequence (P56718 1-416): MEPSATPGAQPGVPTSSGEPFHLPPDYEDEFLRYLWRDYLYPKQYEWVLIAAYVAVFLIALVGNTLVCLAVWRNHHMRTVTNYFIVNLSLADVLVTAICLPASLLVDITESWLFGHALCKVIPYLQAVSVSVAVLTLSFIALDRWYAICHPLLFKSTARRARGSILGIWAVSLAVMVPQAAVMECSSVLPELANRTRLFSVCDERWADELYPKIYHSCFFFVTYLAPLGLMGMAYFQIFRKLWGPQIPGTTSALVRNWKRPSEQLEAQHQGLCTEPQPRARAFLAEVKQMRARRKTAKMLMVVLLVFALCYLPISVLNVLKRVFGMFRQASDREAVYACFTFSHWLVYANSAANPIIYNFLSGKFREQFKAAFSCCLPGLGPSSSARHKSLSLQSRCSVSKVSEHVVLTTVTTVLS

[7] = target: T1, OxR2; settings: over 4 hours; cited from earlier work
[8] = system: Wistar female rats; test: Open-field test (OFT) in rats under shifted photoperiods; settings: OFT first session; for effect on the Distance: 100 mg/kg
Protocol: Activity was tested in open boxes (open-fields: 100 cm wide, 100 cm long, 50 cm high) made of PVC. Animals' activity was recorded by an electronic videotracking detection system (Viewpoint, France) allowing to detect the distance travelled and the time spent in different parts of the open-field.
Light intensity was 7-10 Lux at the center of the open-fields.
Animals were individually placed for a 10-min session in the center of one quadrant of the open-field.
Parameters analyzed were: • 1) One parameter taken as an index of locomotor-exploratory behavior: • The distance travelled in the open-field. • 2) Two parameters taken as indices of anxiety behavior: • a) % Dist Cent=the percentage of distance travelled in the central 60×60 cm area of the open-field. • b) % Time cent=the percentage of time spent in the central 60×60 cm area of the open-field.
(§1) A difference was considered: • 1) Statistically significant: p≦0.05. • 2) Close-to-significant difference: 0.05<p≦0.10. • 3) Not significant: p>0.10.

[9] = system: Wistar female rats; test: Marble burying test (MBT) in rats under shifted photoperiods
Protocol: The marble burying test can score the ability of rats to remove slight stressors, the marbles, from their environments.
Animals of LL-DMSO, LL-Wat, SL-DMSO, SL-Wat and SL-Almo groups were subjected to the marble burying test only once during the period of the study: at the 51st or 52nd days of treatment (see Table 2).
The experiment was conducted in twelve Plexiglas transparent open-boxes (42 cm L, 42 cm W, 40 cm H) filled with 5 cm sawdust. Twenty-five clean glass marbles (15 mm diameter) were evenly spaced 5 cm apart on sawdust. The number of marbles buried was counted at the end of the session.
Light intensity was 30 Lux at the center of the open-boxes.
Animals were individually placed for a 5-min session in the experimental apparatus.
The number of marbles was counted at the end of the session: • 1) Number of marbles not buried. • 2) Number of marbles ⅓ buried. • 3) Number of marbles ⅔ buried. • 4) Number of marbles totally buried.
Parameters analyzed were: • 1) Unburied=the number of marbles not buried. • 2) ≧⅔ buried=number of marbles ⅔ buried+number of marbles totally buried • 3) Tot buried=number of marbles totally buried.

[10] = Body weight / growth rate in rats under shifted photoperiods; settings: for Body weight in percent of initial body weight (d−4): short light (SL) rats, mean
Protocol: Rats were weighed three times a week in order to examine the effect of L/D changes and the effects of treatments on the body weight.
Animals' body weight was recorded three days per week. The body weight on day d-4 was considered as the initial body weight.
Initial body weight (BW) between recorded on day d-4, before the initiation of L/D change analyzed by 1-factor ANOVA and Student's t-test.
Therefore, the following analyses were performed on the BW expressed in percentage of the initial BW. • 2) Effect of L/D condition:
The BW expressed in percentage of the initial BW was compared between by ANOVA for repeated measures (from day dl to day d54): • a) On C-Veh, LL-Veh and SL-Veh groups: overall effect. • b) On C-Veh and LL-Veh groups: effect of LL. • c) On C-Veh and SL-Veh groups: effect of SL. • d) On LL-Veh and SL-Veh groups: difference LL vs. SL. • 3) Effect of vehicle:

[11] = system: Wistar female rats; test: Forced swimming test (FST) in rats under shifted photoperiods
Protocol: Animals of CL and LL groups received the vehicles in the same conditions.
The same animals were tested by the same experimenter on the two FST sessions. The same proportion of animals of each group was tested by each experimenter.
The apparatus used for the experiment consisted of glass cylinders (64 cm high, 25 cm diameter) filled with 30 cm 25° C. water. The experiment was recorded with a camcorder, placed in front of the glass cylinder and connected to a screen, allowing the experimenter to watch the test online.
Light intensity was 15-20 Lux at the level of glass cylinders.
The behavior of the rat was measured on the second trial.
Behavior was classified as one of three behaviors: • 1) Immobility, defined as floating in the water without struggling and using only small movements to keep the head above water. • 2) Swimming, defined as moving limbs in an active manner, more than required to keep the head above water and causing movement among quadrants of the cylinder. • 3) Climbing, defined as making active movements with forepaws moving in and out of the water, usually directed against the side of the cylinder. Parameters analyzed were:
1) Imo=the immobility time.
2) Swm=the swimming time.
3) Clb=the climbing time.
A depressive-like profile is indicated by an increase of the immobility time and a decrease of either the swimming time or the climbing time. Conversely, an antidepressant-like effect is indicated by a decrease of the immobility time and an increase of either the swimming time or the climbing time.
as §1

[12] = system: Wistar female rats; test: Elevated-plus maze (EPM) test in rats under shifted photoperiods
Description: Animals were subjected to the elevated-plus maze (EPM) test only once during the period of the study: at the 43th, 44th or 45th days of treatment (see Table 2).
The apparatus consisted of a plus-shaped maze, elevated 50 cm from the floor, with two opposite open arms, 50×10 cm, crossed at right angles by two arms of the same dimensions, but enclosed by 40-cm-high black opaque walls with an open roof. In addition a 1-cm-high edge made of Plexiglas surrounded the open arms to avoid falls.
Light intensity was 10 Lux at the level of open arms.
The experiment was recorded with a camcorder, placed 1.5 m above the maze and connected to a screen, allowing the experimenter to watch the test online.
Animals were individually placed for a 5-min session in the center of the plus-maze. The number of arm entries and the time spent in arms were recorded. An arm entry is defined as all four paws into the arm.
Other parameters were recorded: the time spent in open arms, the number of open arm entries, the time spent in enclosed arms, the number of enclosed arm entries and the time spent in the center of the maze.
1) Enclosed arm entries: entries into the protected arms of the EPM
as §1

[13] = SL-Almo vs SL-Wat, 100 mg/kg PO
[14] = Short Light rats, Almorexant 100 mg/kg PO daily, group mean
[15] = MBT reanalysis, SL rats, almorexant
[16] = MBT, SL-Almo vs SL-Wat, 100 mg/kg PO
[17] = MBT, short light (SL) rats, group mean
[18] = FST second session, SL-Almo vs SL-Wat, 100 mg/kg PO, 100 mg/kg
[19] = FST second session, short light (SL) rats, group mean
[20] = EPM, SL-Almo vs SL-Wat, 100 mg/kg PO, 100 mg/kg
[21] = EPM, short light (SL) rats, group mean, water vehicle comparison groups

CNC(=O)[C@@H](c1ccccc1)N1CCc2cc(OC)c(OC)cc2[C@@H]1CCc1ccc(C(F)(F)F)cc1.Cl [Almorexant HCl]
Ki [1]: 0.9 nM | IC50 [2]: 15.6 nM | binding and dissociation rates at hOxR1 [3]: fast binding and dissociation rates | classification of antagonism at hOxR1 [3]: competitive antagonist | Kd ([4]; [3H] Almorexant, human OxR2): 0.17 nM | classification of antagonism at hOxR2 [4]: non-competitive antagonist | block of the effect of orexin A on firing [5]: completely block the effect of orexin A | change of Ki over time [6]: remains relatively unchanged | change of OxR2 Ki over time [7]: decrease over 4 hours | effect on the % Dist Center [8, 13]: Did not significantly modify | effect on the % Time Center [8, 13]: Did not significantly modify | effect on the Distance ([8]; SL-Almo vs SL-Wat, 100 mg/kg PO, listed as Almorexant): Tended to reduce the decrease in mobility caused by the SL | effect on the Distance ([8]; SL-Almo vs SL-Wat, 100 mg/kg PO, listed as almorexant): Did not significantly modify | % Dist Cent [8, 14]: 9.9% | % Time Cent [8, 14]: 6.7% | Distance travelled [8, 14]: 8786.5 cm | anxiety-like behavior ([8]; almorexant 100 mg/kg PO): did not induce effect | motor exploratory activity ([8]; almorexant 100 mg/kg PO): did not modify | marbles greater than ⅓ buried (FIG. 20) [9, 15]: treated with statistical significance | marbles ⅓ buried (FIG. 22) [9, 15]: treated statistically significantly | marbles ⅓ or less buried (FIG. 21) [9, 15]: treated with statistical significance | unburied marbles [9, 16]: Reduced the increase | ≧⅔ buried marbles [9, 16]: Reduced the decrease | Number of unburied marbles [9, 17]: 5.3 | number of totally buried [9, 17]: 8.9 | number of ≧⅔ buried marbles [9, 17]: 16.3 | growth rate ([10]; SL-Almo vs SL-Veh, OG (FIG. 30)): consistently found to increase growth rate back to LL levels | body weight (BW, percent of initial BW) ([10]; SL-Almo vs SL-Wat, d29 to d54, 100 mg/kg PO): increased the BW | Body weight in percent of initial body weight (d−4) ([10]; d29-t1, during treatment): 164.4% | Body weight in percent of initial body weight (d−4) ([10]; d31-t3, during treatment): 167.0% | Body weight in percent of initial body weight (d−4) ([10]; d33-t5, during treatment): 168.8% | Body weight in percent of initial body weight (d−4) ([10]; d36-t8, during treatment): 173.4% | Body weight in percent of initial body weight (d−4) ([10]; d38-t10, during treatment): 175.5% | Body weight in percent of initial body weight (d−4) ([10]; d40-t12, during treatment): 176.6% | Body weight in percent of initial body weight (d−4) ([10]; d43-t15, during treatment): 179.7% | Body weight in percent of initial body weight (d−4) ([10]; d45-t17, during treatment): 181.7% | Body weight in percent of initial body weight (d−4) ([10]; d47-t19, during treatment): 183.5% | Body weight in percent of initial body weight (d−4) ([10]; d50-t22, during treatment): 185.5% | Body weight in percent of initial body weight (d−4) ([10]; d52-t24, during treatment): 187.5% | Body weight in percent of initial body weight (d−4) ([10]; d54-t26, during treatment): 187.0% | effect on the swimming time (Swm) ([11]; FST second session, SL-Almo vs SL-Wat, 100 mg/kg PO): Did not significantly modify | effect on the climbing time (Clb) [11, 18]: increased; also recorded: Tended to increase | effect on the immobility time (Imo) [11, 18]: Decreased | antidepressant-like effect ([11]; FST second session, almorexant 100 mg/kg PO): induced an antidepressant-like effect | Immobility time (Imo) [11, 19]: 111.5 s | climbing time (Clb) [11, 19]: 68.7 s | percentage swimming time (Swim) [11, 19]: 119.8 s | FST 2 binned climbing time (FIG. 13) ([11]; double blind reanalysis of video, SL-Almo vs SL-Veh): statistically significant anti-depressant and anti-despair effect | SL-increased anxiety-like behaviors (FIG. 10, enclosed arms) ([12]; EPM reanalysis, OG almorexant): treated with statistical significance | effect on the % OAE [12, 20]: no significant effect; also recorded: Did not significantly modify | effect on the % TOA [12, 20]: no significant effect; also recorded: Did not significantly modify | effect on the AE [12, 20]: increased; also recorded: Tended to increase | anxiety-like behavior ([12]; EPM, almorexant 100 mg/kg PO): did not induce effect | motor exploratory activity ([12]; EPM, almorexant 100 mg/kg PO): increased | Number of arm entries (AE) [12, 21]: 23.8 | Percentage of open arm entries (% OAE) [12, 21]: 38.1% | Percentage of time spent in open arms (% TOA) [12, 21]: 34.9%

Source: patent US20160051533A1, “DIAGNOSIS AND PHARMACOLOGICAL TREATMENT OF SEASONAL AFFECTIVE DISORDER AND SYMPTOMS OF SEASONALITY” (Ladd Research LLC, priority 2014, published 2016)
